Assay results: the supplement of paper PMC11451515

What was measured:
Settings in all cases: 48 h
P12-Ichikawa [1] = assay: AUC of viability dose-response curve (% viability x log10 dose units); higher = less sensitive
Procedure, shortened: (§1)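 Leukemia cells adapted to each medium were seeded in 1536-well plates (500 or 1000 cells/well) and given library compounds in DMSO for 48 h at 37°C. The 11 threefold doses spanned 47 μM to 0.79 nM, and CellTiter-Glo One luminescence was normalised per plate to DMSO and cell-free wells before four-parameter log-logistic fitting on log10 dose. Area under the curve was integrated with the trapezoidal rule, scaling curves above full viability and removing curves that failed quality control.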

NOMO1 [2] = assay: as above
Procedure, shortened: as §1

SEM cells [3] = assay: as above
Procedure, shortened: as §1

P12-Ichikawa [4] = assay: cell viability relative to DMSO control; higher = less cytotoxic
Procedure, shortened: (§2)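 Viability values are per-plate percentages of DMSO wells, with background from cell-free wells. Library compounds in DMSO were pin-dosed, in an 11-point threefold series from 47 μM to 0.79 nM, onto NOMO1 or SEM (500 cells/well) or P12-Ichikawa (1000 cells/well) leukemia cells in 1536-well plates (5 μl). Those cells had been adapted for at least four passages in each medium, and CellTiter-Glo One luminescence was read after 48 h at 37°C.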

NOMO1 [5] = assay: as above
Procedure, shortened: as §2

SEM cells [6] = assay: as above
Procedure, shortened: as §2

COc1c(C)c2c(c(O)c1C/C=C(\C)CCC(=O)OCCN1CCOCC1)C(=O)OC2
AUC of viability dose-response curve
Settings | NOMO1 [2] | P12-Ichikawa [1] | SEM cells [3]
HPLM + 10% dialyzed FBS | 402 | 406 | 405
RPMI 5 mM glucose + 10% FBS | 412 | 393 | 396
RPMI 5 mM glucose + 10% dialyzed FBS | 408 | 400 | 427

cell viability [%]
Settings | NOMO1 [5] | P12-Ichikawa [4] | SEM cells [6]
HPLM + 10% dialyzed FBS, 0.000781 µM | 90.3 | 106 | 107
HPLM + 10% dialyzed FBS, 0.00234 µM | 91.9 | 114 | 110
HPLM + 10% dialyzed FBS, 0.00702 µM | 110 | 114 | 99.8
HPLM + 10% dialyzed FBS, 0.0211 µM | 122 | 104 | 117
HPLM + 10% dialyzed FBS, 0.0632 µM | 112 | 124 | 105
HPLM + 10% dialyzed FBS, 0.19 µM | 99.8 | 106 | 121
HPLM + 10% dialyzed FBS, 0.569 µM | 107 | 109 | 92.8
HPLM + 10% dialyzed FBS, 1.71 µM | 86.3 | 109 | 106
HPLM + 10% dialyzed FBS, 5.12 µM | 60.5 | 58.2 | 64.6
HPLM + 10% dialyzed FBS, 15.4 µM | 43.9 | 40.1 | 39.2
HPLM + 10% dialyzed FBS, 46.1 µM | 31.9 | 35.6 | 26.2
RPMI 5 mM glucose + 10% FBS, 0.000781 µM | 98.5 | 104 | 102
RPMI 5 mM glucose + 10% FBS, 0.00234 µM | 108 | 105 | 113
RPMI 5 mM glucose + 10% FBS, 0.00702 µM | 98 | 111 | 107
RPMI 5 mM glucose + 10% FBS, 0.0211 µM | 92.7 | 109 | 115
RPMI 5 mM glucose + 10% FBS, 0.0632 µM | 95 | 105 | 116
RPMI 5 mM glucose + 10% FBS, 0.19 µM | 110 | 106 | 116
RPMI 5 mM glucose + 10% FBS, 0.569 µM | 107 | 110 | 101
RPMI 5 mM glucose + 10% FBS, 1.71 µM | 122 | 93.9 | 95.8
RPMI 5 mM glucose + 10% FBS, 5.12 µM | 62.9 | 50.2 | 60.7
RPMI 5 mM glucose + 10% FBS, 15.4 µM | 38.8 | 30.1 | 38.7
RPMI 5 mM glucose + 10% FBS, 46.1 µM | 33.6 | 26 | 26
RPMI 5 mM glucose + 10% dialyzed FBS, 0.000781 µM | 102 | 109 | 110
RPMI 5 mM glucose + 10% dialyzed FBS, 0.00234 µM | 108 | 100 | 110
RPMI 5 mM glucose + 10% dialyzed FBS, 0.00702 µM | 102 | 100 | 101
RPMI 5 mM glucose + 10% dialyzed FBS, 0.0211 µM | 111 | 104 | 111
RPMI 5 mM glucose + 10% dialyzed FBS, 0.0632 µM | 104 | 98.3 | 104
RPMI 5 mM glucose + 10% dialyzed FBS, 0.19 µM | 115 | 106 | 117
RPMI 5 mM glucose + 10% dialyzed FBS, 0.569 µM | 98.9 | 102 | 107
RPMI 5 mM glucose + 10% dialyzed FBS, 1.71 µM | 89 | 88.3 | 124
RPMI 5 mM glucose + 10% dialyzed FBS, 5.12 µM | 64.7 | 57.1 | 86.4
RPMI 5 mM glucose + 10% dialyzed FBS, 15.4 µM | 49.5 | 35.4 | 56
RPMI 5 mM glucose + 10% dialyzed FBS, 46.1 µM | 42.2 | 30.3 | 32.6

O=C(O)C(=O)Nc1cccc(-c2nnn[nH]2)c1
AUC of viability dose-response curve
Settings | NOMO1 [2] | P12-Ichikawa [1] | SEM cells [3]
HPLM + 10% dialyzed FBS | 463 | 455 | 422
RPMI 5 mM glucose + 10% FBS | 457 | 477 | 451
RPMI 5 mM glucose + 10% dialyzed FBS | 452 | 470 | 462

cell viability [%]
Settings | NOMO1 [5] | P12-Ichikawa [4] | SEM cells [6]
HPLM + 10% dialyzed FBS, 0.000781 µM | 96.8 | 101 | 90.2
HPLM + 10% dialyzed FBS, 0.00234 µM | 117 | 94.9 | 98.2
HPLM + 10% dialyzed FBS, 0.00702 µM | 117 | 103 | 108
HPLM + 10% dialyzed FBS, 0.0211 µM | 119 | 108 | 112
HPLM + 10% dialyzed FBS, 0.0632 µM | 114 | 108 | 109
HPLM + 10% dialyzed FBS, 0.19 µM | 108 | 106 | 116
HPLM + 10% dialyzed FBS, 0.569 µM | 130 | 105 | 76.4
HPLM + 10% dialyzed FBS, 1.71 µM | 114 | 106 | 122
HPLM + 10% dialyzed FBS, 5.12 µM | 123 | 112 | 132
HPLM + 10% dialyzed FBS, 15.4 µM | 106 | 112 | 128
HPLM + 10% dialyzed FBS, 46.1 µM | 116 | 111 | 119
RPMI 5 mM glucose + 10% FBS, 0.000781 µM | 94.3 | 109 | 91.3
RPMI 5 mM glucose + 10% FBS, 0.00234 µM | 102 | 111 | 112
RPMI 5 mM glucose + 10% FBS, 0.00702 µM | 109 | 106 | 114
RPMI 5 mM glucose + 10% FBS, 0.0211 µM | 95.8 | 112 | 104
RPMI 5 mM glucose + 10% FBS, 0.0632 µM | 111 | 126 | 106
RPMI 5 mM glucose + 10% FBS, 0.19 µM | 108 | 107 | 106
RPMI 5 mM glucose + 10% FBS, 0.569 µM | 97.3 | 113 | 75.5
RPMI 5 mM glucose + 10% FBS, 1.71 µM | 106 | 114 | 119
RPMI 5 mM glucose + 10% FBS, 5.12 µM | 108 | 108 | 120
RPMI 5 mM glucose + 10% FBS, 15.4 µM | 120 | 116 | 110
RPMI 5 mM glucose + 10% FBS, 46.1 µM | 99.2 | 107 | 117
RPMI 5 mM glucose + 10% dialyzed FBS, 0.000781 µM | 109 | 100 | 98.8
RPMI 5 mM glucose + 10% dialyzed FBS, 0.00234 µM | 103 | 105 | 101
RPMI 5 mM glucose + 10% dialyzed FBS, 0.00702 µM | 111 | 106 | 111
RPMI 5 mM glucose + 10% dialyzed FBS, 0.0211 µM | 99.2 | 108 | 116
RPMI 5 mM glucose + 10% dialyzed FBS, 0.0632 µM | 112 | 107 | 119
RPMI 5 mM glucose + 10% dialyzed FBS, 0.19 µM | 106 | 106 | 105
RPMI 5 mM glucose + 10% dialyzed FBS, 0.569 µM | 126 | 100 | 81.5
RPMI 5 mM glucose + 10% dialyzed FBS, 1.71 µM | 104 | 105 | 119
RPMI 5 mM glucose + 10% dialyzed FBS, 5.12 µM | 113 | 98.4 | 132
RPMI 5 mM glucose + 10% dialyzed FBS, 15.4 µM | 113 | 105 | 107
RPMI 5 mM glucose + 10% dialyzed FBS, 46.1 µM | 120 | 102 | 102

CNC(=O)c1ccccc1Sc1ccc2c(/C=C/c3ccccn3)n[nH]c2c1
AUC of viability dose-response curve
Settings | NOMO1 [2] | P12-Ichikawa [1] | SEM cells [3]
HPLM + 10% dialyzed FBS | 425 | 390 | 407
RPMI 5 mM glucose + 10% FBS | 430 | 386 | 389
RPMI 5 mM glucose + 10% dialyzed FBS | 418 | 409 | 395

cell viability [%]
Settings | NOMO1 [5] | P12-Ichikawa [4] | SEM cells [6]
HPLM + 10% dialyzed FBS, 0.000781 µM | – | 116 | 119
HPLM + 10% dialyzed FBS, 0.00234 µM | – | 111 | 109
HPLM + 10% dialyzed FBS, 0.00702 µM | – | 107 | 119
HPLM + 10% dialyzed FBS, 0.0211 µM | – | 115 | 116
HPLM + 10% dialyzed FBS, 0.0632 µM | – | 112 | 120
HPLM + 10% dialyzed FBS, 0.19 µM | – | 109 | 118
HPLM + 10% dialyzed FBS, 0.569 µM | – | 106 | 114
HPLM + 10% dialyzed FBS, 1.71 µM | – | 84.5 | 115
HPLM + 10% dialyzed FBS, 5.12 µM | – | 77.8 | 73.4
HPLM + 10% dialyzed FBS, 15.4 µM | – | 17.9 | 33.5
HPLM + 10% dialyzed FBS, 46.1 µM | – | 14 | 30.5
RPMI 5 mM glucose + 10% FBS, 0.000781 µM | 108 | 117 | –
RPMI 5 mM glucose + 10% FBS, 0.00234 µM | 116 | 116 | –
RPMI 5 mM glucose + 10% FBS, 0.00702 µM | 107 | 126 | –
RPMI 5 mM glucose + 10% FBS, 0.0211 µM | 115 | 116 | –
RPMI 5 mM glucose + 10% FBS, 0.0632 µM | 118 | 110 | –
RPMI 5 mM glucose + 10% FBS, 0.19 µM | 105 | 97.2 | –
RPMI 5 mM glucose + 10% FBS, 0.569 µM | 112 | 108 | –
RPMI 5 mM glucose + 10% FBS, 1.71 µM | 91.5 | 87 | –
RPMI 5 mM glucose + 10% FBS, 5.12 µM | 74.8 | 78.9 | –
RPMI 5 mM glucose + 10% FBS, 15.4 µM | 68.8 | 28 | –
RPMI 5 mM glucose + 10% FBS, 46.1 µM | 84.2 | 21.6 | –
RPMI 5 mM glucose + 10% dialyzed FBS, 0.000781 µM | 103 | – | –
RPMI 5 mM glucose + 10% dialyzed FBS, 0.00234 µM | 119 | – | –
RPMI 5 mM glucose + 10% dialyzed FBS, 0.00702 µM | 123 | – | –
RPMI 5 mM glucose + 10% dialyzed FBS, 0.0211 µM | 109 | – | –
RPMI 5 mM glucose + 10% dialyzed FBS, 0.0632 µM | 104 | – | –
RPMI 5 mM glucose + 10% dialyzed FBS, 0.19 µM | 100 | – | –
RPMI 5 mM glucose + 10% dialyzed FBS, 0.569 µM | 107 | – | –
RPMI 5 mM glucose + 10% dialyzed FBS, 1.71 µM | 74.9 | – | –
RPMI 5 mM glucose + 10% dialyzed FBS, 5.12 µM | 74.8 | – | –
RPMI 5 mM glucose + 10% dialyzed FBS, 15.4 µM | 68.8 | – | –
RPMI 5 mM glucose + 10% dialyzed FBS, 46.1 µM | 67.9 | – | –
